Tests used:
[1] = molecular target: T1, EGFR (T790M, L858R) (Homo sapiens, UniProt P00533, L858R/T790M); assay: EGFR Tyrosine Kinase Inhibiting Activity Measurement 1 (ADP-Glo), DM; assay type: biochemical; conditions: 1 h incubation with ATP/Poly(Glu, Tyr); >10: <50% enzyme inhibition at 10 μM
T1 construct: purchased Promega V5324
Protocol: (§1) The measurement was carried out according to the Promega protocol applications guide. That is, a buffer solution (40 mM Tris-HCl, pH 7.5, 20 mM MgCl2, 50 μM DTT and 0.1 mg/mL BSA) was used as a dilute solution. The concentration of each compound started at 100 μM (the final concentration, including 1% DMSO) with 5-fold dilutions with the buffer solution. Thus, ten concentrations of each compound were prepared. The initial concentration of PD158780 alone was set at 10 μM (the final concentration, including 1% DMSO) but it was prepared in the same manner as the compound group. Then, 2 μL of each concentration of each compound thus obtained was added to each well of a 384-well plate. Furthermore, 4 μL (20 ng) of an EGFR Kinase Buffer that came with each EGFR Kinase Enzyme System was added to each well, which then was incubated at room temperature for ten minutes. Subsequently, 4 μL of mixed solution of ATP (10 μM) and Poly(Glu, Tyr) (2 μg) substrate was added to each well, which then was incubated at room temperature for one hour. Then, 10 μL of ADP-Glo™ Reagent (ADP-Glo™ Kinase Assay, Promega) was added to each well, which then was reacted at room temperature for 40 minutes. Furthermore, 20 μL of Kinase Detection Reagent (ADP-Glo™ Kinase Assay, Promega) was added to each well, which then was reacted at room temperature for one hour. […] From the data thus obtained, dose-response curves and IC50 were calculated using GraphPad Prism 5 (GraphPad Software, Inc.).

[2] = molecular target: T2, EGFR (EGFR Kinase Enzyme System, WT) (Homo sapiens, UniProt P00533); assay: EGFR Tyrosine Kinase Inhibiting Activity Measurement 1 (ADP-Glo), WT; assay type: biochemical; conditions: for IC50: 1 h incubation with ATP/Poly(Glu, Tyr), >10: <50% enzyme inhibition at 10 μM
T2 construct: purchased Promega V3831
Protocol: as §1

[3] = molecular target: T3, EGFR (L858R) (Homo sapiens, UniProt P00533, L858R); assay: EGFR Tyrosine Kinase Inhibiting Activity Measurement 1 (ADP-Glo), L858R; assay type: biochemical; conditions: 1 h incubation with ATP/Poly(Glu, Tyr); >10: <50% enzyme inhibition at 10 μM
T3 construct: purchased Promega V5322
Protocol: as §1

[4] = molecular target: T4, EGFR (T790M) (Homo sapiens, UniProt P00533, T790M); assay: EGFR Tyrosine Kinase Inhibiting Activity Measurement 1 (ADP-Glo), T790M; assay type: biochemical; conditions: 1 h incubation with ATP/Poly(Glu, Tyr); >10: <50% enzyme inhibition at 10 μM
T4 construct: purchased Promega V4506
Protocol: as §1

[5] = molecular target: T5, L858R/T790M-mutated EGFR (Homo sapiens, UniProt P00533, L858R/T790M); assay: EGFR Tyrosine Kinase Inhibiting Activity Measurement 2, L858R/T790M; assay type: biochemical
T5 construct: purchased Promega V5324
Protocol: as §1, with “minutes.” for “minutes. Furthermore, 20 μL of Kinase Detection Reagent (ADP-Glo™ Kinase Assay, Promega) was added to each well, which then was reacted at room temperature for one hour.”

[6] = molecular target: T6, L858R-mutated EGFR (Homo sapiens, UniProt P00533, L858R); assay: EGFR Tyrosine Kinase Inhibiting Activity Measurement 2, L858R; assay type: biochemical
T6 construct: purchased Promega V5322
Protocol: as §1, with “minutes.” for “minutes. Furthermore, 20 μL of Kinase Detection Reagent (ADP-Glo™ Kinase Assay, Promega) was added to each well, which then was reacted at room temperature for one hour.”

[7] = test system: H1975 cells (L858R/T790M mutation); assay: Cellular Uptake Inhibition Experiment 1 (gefitinib), H1975; assay type: cell-based, human; conditions: regardless of gefitinib (0, 0.5, 1, 2.5 μM), 2 h incubation; FIG. 1
Protocol: (§2) Two types of EGFR mutation-positive human non-small cell lung cancer cells H3255 (L858R mutation) and H1975 (L858R/T790M mutation) were cultured in a DMEM/Ham's F-12 medium (Nacalai Tesque) containing glutamine, antibiotics (penicillin-streptomycin), and 20% fetal bovine serum.
(§3) The binding specificity of H4 to each mutated EGFR-TK was evaluated by a cellular uptake inhibition experiment using H3255 cells, which are L858R mutant cells, and H1975 cells, which are L858R/T790M mutant cells. H3255 and H1975 cells (4×10^5 cells/well) were cultured in a 12-well plate for 48 hours. After the medium was removed, each well was washed with PBS(−) once. Each fetal bovine serum-free DMEM/Ham's F-12 medium with [^18F]H4 (0.15 MBq/mL) and gefitinib (0, 0.5, 1, and 2.5 μM) added thereto was added to each well, which then was incubated in a CO2 incubator for two hours. Each well was washed with 0.1% Tween 80/1% DMSO/PBS(−) three times, and the cells were dissolved with 0.2 N NaOH. The radioactivity of each solution was measured with the gamma counter, and the protein concentration was determined using a BCA Protein Assay Kit (Pierce, Rockford, Ill.) and then the measurement results were analyzed.

[8] = test system: H3255 tumor-bearing mouse; assay: Biodistribution Experiment in tumor-bearing mice; assay type: in vivo
Protocol: 1×10^7 cells/mouse of H3255 cells suspended in BD Matrigel™ Basement Membrane Matrix was implanted to the right shoulder of a 5-week-old male BALB/c nu/nu mouse (Shimizu Laboratory Supplies), and thereby a tumor-bearing mouse was prepared. They were used for experiments, with the tumor being 1 cm or smaller in diameter.
[^18F]H4 was dissolved in saline containing 0.1% Tween 80 so as to be 6 μCi/100 μL and 100 μL thereof was administered to each tumor-bearing mouse through a tail vein. The mice were decapitated/slaughtered at predetermined time points (30 minutes, 1 hour, 2 hours, and 3 hours after administration). The blood was collected and tissues were removed and then the mass and the accumulated radioactivity were measured. The amount of accumulation (% dose/g) was calculated from the radioactivity per unit weight and the accumulation in the tissues was evaluated. FIG. 3 is a graph showing an example of variations with time of the accumulation of [^18F]H4 in each organ.

[9] = test system: H3255 tumor-bearing mouse; assay: PET/CT Imaging 1; assay type: in vivo; conditions: 180 to 200 min after tail vein administration; FIG. 5
Protocol: [^18F]H4 (9.8 MBq/150 μL) was administered to a H3255 tumor-bearing mouse through a tail vein. He was anesthetized by inhalation of isoflurane (2.0%) from 175 minutes after the administration and then was imaged for 20 minutes from 180 minutes after the administration using a PET/CT device (FX-3300). Thereafter, CT imaging (60 kV, 320 μA) was carried out. The image reconstruction was carried out using 3D-OSEM.
Animal: Balb/c nu/nu mouse, 10 w, male, 22.2 g
Injection dose: 264 μCi/150 μL
(§4) Image acquisition: 180 to 200 min after administration
(§5) Condition of CT: 60 kV, 320 μA

[10] = test system: H1975 tumor-bearing mouse; assay: PET/CT Imaging 2; assay type: in vivo; conditions: 180 to 200 min after administration; FIG. 6
Protocol: PET/CT Imaging 2 was carried out in the same manner as in PET/CT Imaging 1 except that a H1975 tumor-bearing mouse was used and the following imaging conditions were employed.
Animal: Balb/c nu/nu mouse, 9 w, male, 20.9 g
Injection dose: 486 μCi/150 μL
as §4, §5

[11] = test system: H1975 tumor (L858R/T790M mutation); assay: Biodistribution Experiment (Blocking Experiment), H1975; assay type: in vivo, mouse; conditions: with or without AZD9291 (17 μg), 180 min after administration; FIG. 4
Protocol: At 180 minutes after the administration, they were slaughtered and H3255 tumor tissues were removed. The mass and the accumulated radioactivity were measured, and the amount of accumulation (% dose/g) was calculated from the radioactivity per unit weight. This was carried out in the same manner as above except that AZD9291 was not administered.
Furthermore, this experiment was carried out in the same manner as above except that H1975 tumor-bearing mice were used.

[12] = test system: H3255 cells (L858R mutation); assay: Cellular Uptake Inhibition Experiment 1 (gefitinib), H3255; assay type: cell-based, human; conditions: gefitinib 0, 0.5, 1, 2.5 μM, 2 h incubation; FIG. 1
Protocol: as §2, §3

[13] = test system: H3255 cells (L858R mutation); assay: Cellular Uptake Inhibition Experiment 2 (AZD9291), H3255; assay type: cell-based, human; conditions: AZD9291 0, 1, 5 μM pre-incubated 30 min, then 2 h; FIG. 2
Protocol: as §2
(§6) H3255 and H1975 cells (4×10^5 cells/well) were cultured in a 12-well plate for 24 hours. After the medium was removed, each well was washed with PBS(−) once. […] [^18F]H4 (148 kBq/well) was added to each well, which then was incubated in the 5% CO2 incubator at 37° C. for two hours. Each well was washed with 0.1% Tween 80/1% DMSO/PBS(−) three times, and the cells were dissolved with 0.2 N NaOH. The radioactivity of each solution was measured with the gamma counter and the protein concentration was determined using the BCA Protein Assay Kit (Pierce, Rockford, Ill.) and then the measurement results were analyzed.

[14] = test system: H3255 tumor (L858R mutation); assay: Biodistribution Experiment (Blocking Experiment), H3255; assay type: in vivo, mouse; conditions: AZD9291 (17 μg) administered simultaneously, 180 min after administration; FIG. 4
Protocol: At 180 minutes after the administration, they were slaughtered and H3255 tumor tissues were removed. The mass and the accumulated radioactivity were measured, and the amount of accumulation (% dose/g) was calculated from the radioactivity per unit weight. […]

[15] = test system: H1975 cells (L858R/T790M mutation); assay: Cellular Uptake Inhibition Experiment 2 (AZD9291), H1975; assay type: cell-based, human; conditions: regardless of AZD9291 (0, 1, 5 μM), 2 h incubation; FIG. 2
Protocol: as §2, §6

[16] = 30 min after tail vein administration, average of 5 mice
[17] = 60 min after tail vein administration, average of 5 mice
[18] = 120 min after tail vein administration, average of 5 mice
[19] = 180 min after tail vein administration, average of 5 mice
[20] = from 30 min to 180 min after administration

T3 sequence (P00533 25-1210 L858R): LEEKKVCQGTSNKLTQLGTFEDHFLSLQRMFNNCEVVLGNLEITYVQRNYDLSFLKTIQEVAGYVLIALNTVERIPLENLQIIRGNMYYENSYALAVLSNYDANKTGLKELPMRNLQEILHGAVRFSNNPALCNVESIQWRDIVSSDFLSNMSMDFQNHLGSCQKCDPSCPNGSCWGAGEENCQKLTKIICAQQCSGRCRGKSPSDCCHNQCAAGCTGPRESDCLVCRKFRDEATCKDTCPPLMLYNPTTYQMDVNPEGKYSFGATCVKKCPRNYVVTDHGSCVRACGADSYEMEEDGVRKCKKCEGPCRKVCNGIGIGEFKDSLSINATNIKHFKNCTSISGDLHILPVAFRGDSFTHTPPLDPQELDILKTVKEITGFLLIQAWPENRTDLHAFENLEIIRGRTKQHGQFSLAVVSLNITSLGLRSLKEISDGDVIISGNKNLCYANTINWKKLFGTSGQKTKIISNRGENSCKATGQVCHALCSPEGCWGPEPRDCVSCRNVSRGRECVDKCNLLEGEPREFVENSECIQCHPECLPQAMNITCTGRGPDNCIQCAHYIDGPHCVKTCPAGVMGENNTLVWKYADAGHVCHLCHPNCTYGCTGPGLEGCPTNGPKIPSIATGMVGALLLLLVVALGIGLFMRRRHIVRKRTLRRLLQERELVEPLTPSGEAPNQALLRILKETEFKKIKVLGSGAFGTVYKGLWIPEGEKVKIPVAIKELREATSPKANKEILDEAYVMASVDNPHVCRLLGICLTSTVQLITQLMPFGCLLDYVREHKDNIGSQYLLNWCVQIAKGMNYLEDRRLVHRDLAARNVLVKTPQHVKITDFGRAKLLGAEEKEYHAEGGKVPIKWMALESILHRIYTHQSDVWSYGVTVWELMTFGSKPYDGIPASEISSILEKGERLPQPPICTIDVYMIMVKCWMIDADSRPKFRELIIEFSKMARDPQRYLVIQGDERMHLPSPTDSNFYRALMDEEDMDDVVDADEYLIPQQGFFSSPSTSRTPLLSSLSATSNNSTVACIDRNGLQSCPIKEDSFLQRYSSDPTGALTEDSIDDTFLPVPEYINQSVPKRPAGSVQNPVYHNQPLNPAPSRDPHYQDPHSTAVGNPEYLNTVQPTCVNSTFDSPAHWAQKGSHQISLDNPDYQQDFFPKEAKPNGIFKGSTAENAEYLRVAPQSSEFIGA
T4 sequence (P00533 25-1210 T790M): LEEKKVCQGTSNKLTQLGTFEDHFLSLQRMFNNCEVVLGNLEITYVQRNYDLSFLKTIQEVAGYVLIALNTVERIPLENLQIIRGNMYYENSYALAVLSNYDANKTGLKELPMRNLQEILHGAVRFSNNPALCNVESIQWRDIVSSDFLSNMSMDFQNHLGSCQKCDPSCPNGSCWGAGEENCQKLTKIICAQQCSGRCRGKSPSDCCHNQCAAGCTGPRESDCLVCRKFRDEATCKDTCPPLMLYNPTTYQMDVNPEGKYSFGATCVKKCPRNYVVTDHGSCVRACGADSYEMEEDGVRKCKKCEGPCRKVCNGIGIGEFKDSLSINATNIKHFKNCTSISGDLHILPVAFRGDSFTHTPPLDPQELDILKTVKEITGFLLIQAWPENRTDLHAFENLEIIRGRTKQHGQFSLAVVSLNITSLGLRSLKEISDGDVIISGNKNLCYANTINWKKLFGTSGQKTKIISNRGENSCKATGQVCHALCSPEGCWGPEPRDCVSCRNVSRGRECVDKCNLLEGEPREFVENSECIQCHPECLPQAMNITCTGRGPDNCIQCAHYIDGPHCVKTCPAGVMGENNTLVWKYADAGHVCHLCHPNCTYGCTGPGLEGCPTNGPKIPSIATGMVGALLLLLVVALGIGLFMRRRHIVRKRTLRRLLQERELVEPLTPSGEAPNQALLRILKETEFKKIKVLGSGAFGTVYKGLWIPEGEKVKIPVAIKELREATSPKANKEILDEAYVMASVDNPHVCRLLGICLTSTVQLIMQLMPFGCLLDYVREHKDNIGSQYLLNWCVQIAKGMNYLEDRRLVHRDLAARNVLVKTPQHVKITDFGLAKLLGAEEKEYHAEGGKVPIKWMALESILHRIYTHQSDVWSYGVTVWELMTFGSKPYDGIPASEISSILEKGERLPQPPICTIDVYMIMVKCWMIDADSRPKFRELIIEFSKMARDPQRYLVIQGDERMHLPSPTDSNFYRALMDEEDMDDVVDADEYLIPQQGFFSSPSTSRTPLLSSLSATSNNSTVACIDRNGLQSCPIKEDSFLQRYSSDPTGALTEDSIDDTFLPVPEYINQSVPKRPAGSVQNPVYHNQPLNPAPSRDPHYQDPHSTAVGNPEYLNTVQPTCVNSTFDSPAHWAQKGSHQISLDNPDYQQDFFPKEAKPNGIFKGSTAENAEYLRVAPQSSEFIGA
T2 sequence (P00533 25-1210): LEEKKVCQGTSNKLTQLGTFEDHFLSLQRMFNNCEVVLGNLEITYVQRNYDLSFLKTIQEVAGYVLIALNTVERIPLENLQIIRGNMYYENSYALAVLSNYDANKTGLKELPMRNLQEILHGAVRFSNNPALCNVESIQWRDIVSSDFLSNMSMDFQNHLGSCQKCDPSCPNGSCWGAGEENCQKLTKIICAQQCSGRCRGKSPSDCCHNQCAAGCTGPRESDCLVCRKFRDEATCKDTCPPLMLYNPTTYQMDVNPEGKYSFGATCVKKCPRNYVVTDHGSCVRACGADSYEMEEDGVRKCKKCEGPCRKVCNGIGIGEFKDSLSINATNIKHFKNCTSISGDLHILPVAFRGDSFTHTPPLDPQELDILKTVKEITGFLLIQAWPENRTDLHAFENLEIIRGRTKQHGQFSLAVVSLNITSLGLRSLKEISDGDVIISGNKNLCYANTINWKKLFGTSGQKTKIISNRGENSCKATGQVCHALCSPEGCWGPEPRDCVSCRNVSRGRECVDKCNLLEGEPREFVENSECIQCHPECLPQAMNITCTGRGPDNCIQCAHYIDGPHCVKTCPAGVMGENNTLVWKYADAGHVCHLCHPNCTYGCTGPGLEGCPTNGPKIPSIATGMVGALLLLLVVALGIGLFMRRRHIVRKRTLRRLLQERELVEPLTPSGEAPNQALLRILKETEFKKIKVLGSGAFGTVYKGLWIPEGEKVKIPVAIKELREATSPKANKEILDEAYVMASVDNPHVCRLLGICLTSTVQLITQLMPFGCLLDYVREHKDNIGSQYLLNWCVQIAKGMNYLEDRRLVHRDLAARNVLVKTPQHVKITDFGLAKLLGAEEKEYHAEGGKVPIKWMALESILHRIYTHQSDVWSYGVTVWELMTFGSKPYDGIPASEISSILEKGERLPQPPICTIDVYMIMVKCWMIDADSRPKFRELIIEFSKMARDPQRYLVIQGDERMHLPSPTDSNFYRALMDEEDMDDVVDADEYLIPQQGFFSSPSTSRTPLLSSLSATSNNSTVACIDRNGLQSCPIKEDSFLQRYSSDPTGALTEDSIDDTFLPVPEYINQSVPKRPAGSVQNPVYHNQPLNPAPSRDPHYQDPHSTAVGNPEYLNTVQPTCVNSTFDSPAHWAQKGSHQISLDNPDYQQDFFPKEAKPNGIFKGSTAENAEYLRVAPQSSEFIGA
T1 sequence (P00533 25-1210 T790M/L858R): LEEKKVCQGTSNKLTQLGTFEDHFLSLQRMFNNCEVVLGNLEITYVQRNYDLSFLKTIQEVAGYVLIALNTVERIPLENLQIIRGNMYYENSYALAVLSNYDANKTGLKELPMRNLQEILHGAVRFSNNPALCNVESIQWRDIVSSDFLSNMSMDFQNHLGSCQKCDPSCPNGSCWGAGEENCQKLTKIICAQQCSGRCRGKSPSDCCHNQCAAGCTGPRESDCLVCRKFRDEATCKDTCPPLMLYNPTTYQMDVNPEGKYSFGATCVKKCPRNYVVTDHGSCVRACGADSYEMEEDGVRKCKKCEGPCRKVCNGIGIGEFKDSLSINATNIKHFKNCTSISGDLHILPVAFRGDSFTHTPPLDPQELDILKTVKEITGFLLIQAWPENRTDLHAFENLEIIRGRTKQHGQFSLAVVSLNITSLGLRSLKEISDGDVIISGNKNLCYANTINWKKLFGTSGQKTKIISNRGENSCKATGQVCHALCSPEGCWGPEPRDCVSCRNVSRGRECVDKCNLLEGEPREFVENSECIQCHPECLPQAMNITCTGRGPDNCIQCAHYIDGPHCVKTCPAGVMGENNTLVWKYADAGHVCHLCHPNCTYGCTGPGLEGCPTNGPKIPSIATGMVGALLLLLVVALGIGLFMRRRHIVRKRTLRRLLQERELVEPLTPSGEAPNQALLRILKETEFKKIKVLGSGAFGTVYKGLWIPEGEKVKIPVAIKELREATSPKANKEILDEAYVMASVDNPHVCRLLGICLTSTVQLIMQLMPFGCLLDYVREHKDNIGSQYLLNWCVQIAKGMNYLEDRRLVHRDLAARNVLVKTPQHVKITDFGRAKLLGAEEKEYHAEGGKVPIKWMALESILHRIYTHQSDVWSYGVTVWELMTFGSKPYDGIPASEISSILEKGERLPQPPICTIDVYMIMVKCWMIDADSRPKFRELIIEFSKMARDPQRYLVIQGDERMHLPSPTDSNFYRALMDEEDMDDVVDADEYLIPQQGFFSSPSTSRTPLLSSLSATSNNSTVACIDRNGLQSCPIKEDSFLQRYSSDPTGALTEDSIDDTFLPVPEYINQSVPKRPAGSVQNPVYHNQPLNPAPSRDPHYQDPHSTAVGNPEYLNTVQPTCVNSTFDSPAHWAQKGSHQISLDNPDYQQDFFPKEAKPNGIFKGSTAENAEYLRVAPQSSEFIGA

FCCNc1cc2c(Nc3cccc(Br)c3)ncnc2cn1 [Compound H1, 4-[(3-Bromophenyl)amino]-6-(2-fluoroethylamino)pyrido[3,4-d]pyrimidine]
IC50 [1]: 4020 nM
IC50 [2]: 17 nM
IC50 [3]: 15 nM
IC50 [4]: 4110 nM

FCCOc1cccc(Nc2ncnc3cnc(NCCN4CCOCC4)cc23)c1 [Compound H2, N^4-(3-(2-Fluoroethoxy)phenyl)-N^6-(2-morpholinoethyl)pyrido[3,4-d]pyrimidine-4,6-diamine]
IC50 [1]: > 10000 nM
IC50 [2]: 7210 nM
binding affinity to the wild-type EGFR (in words) ([2]; comment on Table 1): low binding affinity
IC50 [3]: 653 nM
IC50 [4]: > 10000 nM

Fc1ccc(Nc2ncnc3cnc(NCCN4CCOCC4)cc23)cn1 [Compound H3, N^4-(6-Fluoropyridin-3-yl)-N^6-(2-morpholinoethyl)pyrido[3,4-d]pyrimidin-4,6-diamine]
IC50 [1]: > 10000 nM
IC50 [2]: 3750 nM
IC50 [3]: 686 nM
IC50 [4]: > 10000 nM

O=C(/C=C/CN1CCN(CCF)CC1)Nc1cc2c(Nc3cccc(Br)c3)ncnc2cn1 [Compound H4, (E)-N-(4-((3-Bromophenyl)amino)pyrido[3,4-d]pyrimidin-6-yl)-4-(4-(2-fluoroethyl)piperazin-1-yl)but-2-enamide]
IC50 [1]: 406 nM
IC50 [2]: 49 nM
IC50 ([5]; 2 h incubation after ATP and Poly(Glu, Tyr) substrate were added, read-out: EGFR Kinase Inhibition: IC50, L858R/T790M): 326 ± 64 nM
binding affinity to the L858R/T790M-mutated EGFR (in words) ([5]; comment on Table 2): lower than AZD9291 and was higher than Erlotinib
IC50 [3]: 58 nM
IC50 [4]: 409 nM
IC50 ([6]; 2 h incubation after ATP and Poly(Glu, Tyr) substrate were added, read-out: EGFR Kinase Inhibition: IC50, L858R): 15.6 ± 0.8 nM
binding affinity to the L858R-mutated EGFR (in words) ([6]; comment on Table 2): relatively high binding affinity

CNc1cc2c(Nc3cccc(Br)c3)ncnc2cn1 [PD158780, reference compound]
IC50 [2]: 6 nM

O=C(/C=C/CN1CCN(CC[18F])CC1)Nc1cc2c(Nc3cccc(Br)c3)ncnc2cn1 [[^18F]H4, (E)-N-(4-((3-Bromophenyl)amino)pyrido[3,4-d]pyrimidin-6-yl)-4-(4-(2-[^18F]fluoroethyl)piperazin-1-yl)but-2-enamide]
uptake of [^18F]H4 into the H1975 cells [7]: approximately 50 % ID/mg protein
Tumor/Blood Ratio [8, 16]: 1.99
Tumor/Muscle Ratio [8, 16]: 3.47
Tumor/Blood Ratio [8, 17]: 3.24
Tumor/Muscle Ratio [8, 17]: 8.89
Tumor/Blood Ratio [8, 18]: 3.28
Tumor/Muscle Ratio [8, 18]: 5.75
Tumor/Blood Ratio [8, 19]: 3.03
Tumor/Muscle Ratio [8, 19]: 9.29
Tumor/Blood Ratio [8, 20]: around 3
Tumor/Muscle Ratio [8, 20]: exceeded 5
metabolism and excretion (transition from the liver to the intestine) ([8]; tumor-bearing mice, 30 to 180 min after administration, FIG. 3): quickly metabolized and excreted
accumulation in PET/CT image, H3255 implant [9]: accumulated specifically in the portion where H3255 was implanted
accumulation in PET/CT image, H1975 implant [10]: no specific accumulation
change of accumulation of [^18F]H4 in the H1975 tumor [11]: hardly changed
uptake of [^18F]H4 into the H3255 cells [12]: inhibited by gefitinib
uptake of [^18F]H4 into the H3255 cells [13]: inhibited by AZD9291
reduction in accumulation of [^18F]H4 in the H3255 tumor [14]: 54%
uptake of [^18F]H4 into the H1975 cells [15]: approximately 50 % ID/mg protein

From patent publication US10029022B2, “Nuclear medicine diagnostic imaging agent” (Kyoto University, priority 2015, dated 2018)
